The subject of the assay is human adipocytes. The experiment in a line: Lipolysis activity on human adipocytes (released glycerol). To be noted: 30 mM; 90 minutes at 37° C.; reference medium = 0. Format: cell-based. How it is done: Method: The adipocytes were isolated from human subcutaneous tissue, as corresponds to the general technique in accordance with Rodbell. The extract as in
Example 1 or the comparison substances are dissolved in the reference medium and then brought into contact with the isolated adipocytes for 90 minutes at 37° C. In each case one adipocyte preparations [sic] was analyzed. The percentage increase in released glycerol in the supernatant of the medium was determined by means of spectrophotometry in accordance with the method by Carpéné et al. The reference administered was the medium without substance to be analyzed and was set equal to 0.

The values below come from patent publication US20030138394A1, “Cosmetic and/or pharmaceutical preparations that contain an extract of the plant argania spinosa” (priority 2000, published 2003).

As for `Cn1c(=O)c2c(ncn2C)n(C)c1=O` [Caffeine], the “% increase in released glycerol” value is recorded as 181%.
